Experimental data from article PMC9229294, “Pyridazinones and Structurally Related Derivatives with Anti-Inflammatory Activity” (Molecules, 2022).
Read-outs that look alike come from different tables or passages of the source. Values belong to the compound of their own block, whether it stands above or below them.

Legend:
THP1-Blue cells = assay: Cytotoxicity, CellTiter-Glo, THP1-Blue cells; assay type: cell-based, human; conditions: for Cytotoxicity in THP1-Blue Cells (FPR peptide agonists): peptides tested at 5 nM, N.T. = no cytotoxicity
Experimental: (§1) Our studies included 175 compounds that were previously synthesized and characterized at NEUROFARBA, Pharmaceutical and Nutraceutical Section, University of Florence, Italy. We previously evaluated the FPR1/FPR2 agonist activity of these compounds by evaluating their ability to induce Ca^2+ mobilization in FPR-transfected HL60 cells and human neutrophils. […] All test compounds were dissolved in DMSO at stock concentrations of 10 mM and stored at −20 °C. For primary screening assays (analysis of NF-κB activation, IL-6 production, and cytotoxicity), the following final concentrations of the compounds were used: 3.125, 6.25, 12.5, 25, and 50 µM; the final concentration of DMSO was 1% in all samples.
(§2) The cytotoxicity was analyzed with a CellTiter-Glo Luminescent Cell Viability Assay Kit from Promega (Madison, WI, USA), according to the manufacturer’s protocol. The luminescent ATP assays are based on a luciferase enzymatic reaction which uses ATP from viable cells to generate photons. For this assay, the cells were incubated with the compounds under investigation for 24 h. After treatment, the cells were equilibrated to room temperature for 30 min, luciferase + luciferin substrate was added, and the samples were analyzed with a Fluoroscan Ascent FL (Thermo Fisher Scientific, Waltham, MA, USA). The IC50 values were calculated by plotting the percentage inhibition against the logarithm of the inhibitor concentration (at least five points).

[1] = test system: myocardial infarction injury in mice; parameters: method as in PMID 19639995, PMID 32085666, PMID 28169296; conditions: cited from earlier work
mouse aortas = test system: mouse aortas; parameters: method as in PMID 19639995, PMID 32085666, PMID 28169296; conditions: cited from earlier work
[2] = Cytotoxicity, CellTiter-Glo, THP1-Blue cells; assay type: cell-based, human; conditions: human, THP1-Blue cells
Experimental: as §1, §2

[3] = Cytotoxicity, CellTiter-Glo, MonoMac-6 cells; assay type: cell-based, human; conditions: human, MonoMac-6 cells
Experimental: as §1, §2

[4] = test system: LPS-induced IL-6 production in MonoMac-6 cells; assay: Inhibition of LPS-induced IL-6 production in MonoMac-6 cells (ELISA); assay type: cell-based, human; conditions: for IC50: Homo sapiens, MONO-MAC-6, read-out: Inhibition of IL-6 Production IC50 in MonoMac-6 Cells
Experimental: as §1
A human IL-6 ELISA kit (BD Biosciences, San Jose, CA, USA) was used to measure IL-6 production. […] The cells were pretreated with the test compound or DMSO for 30 min, followed by addition of 250 ng/mL LPS for 24 h. The IC50 values for IL-6 production were calculated by plotting the percentage inhibition against the logarithm of the inhibitor concentration (at least five points).

[5] = test system: LPS-induced NF-κB activity in THP1-Blue cells; assay: Inhibition of LPS-induced NF-κB transcriptional activity, alkaline phosphatase reporter, THP1-Blue cells; assay type: cell-based, human; conditions: for Effect of blocking FPR1 (Boc-MLF) on inhibitor activity on LPS-induced NF-κB activation: 25 μM Boc-MLF 15 min, then 5 µM compound, LPS-treated THP1 cells; for IC50: LPS-induced NF-κB activity, human THP1-Blue cells, N.A. = no activity at 50 µM; for Inhibition of LPS-induced NF-κB activity (in words): THP1-Blue cells, 250 ng/mL LPS, 24 h; for Observed class for inhibition of NF-κB activity: experimentally observed, Active or N.A.
Experimental: as §1
The activation of NF-κB was measured using an alkaline phosphatase reporter assay in human monocytic THP1-Blue cells stably transfected with a secreted embryonic alkaline phosphatase gene that is under the control of a promoter inducible by the NF-κB. The THP1-Blue cells (2 × 10^5 cells/well) were pretreated with the test compound or DMSO for 30 min, followed by an addition of 250 ng/mL LPS for 24 h. Alkaline phosphatase activity was determined in cell supernatants using a QUANTI-Blue mix (InvivoGen) and measured at 655 nm and compared with positive control samples (LPS).

FPR1 [6] = target: T1, FPR1 (Homo sapiens, UniProt P21462); conditions: FPR1-transfected HL-60 cells, read-out: Ca2+ Mobilization FPR1 EC50 in HL-60 Cells, cited from earlier work
T1 construct: expressed in transfected cells; host or cells: HL-60 cells (FPR1-HL60)
T1 sequence (P21462 1-350): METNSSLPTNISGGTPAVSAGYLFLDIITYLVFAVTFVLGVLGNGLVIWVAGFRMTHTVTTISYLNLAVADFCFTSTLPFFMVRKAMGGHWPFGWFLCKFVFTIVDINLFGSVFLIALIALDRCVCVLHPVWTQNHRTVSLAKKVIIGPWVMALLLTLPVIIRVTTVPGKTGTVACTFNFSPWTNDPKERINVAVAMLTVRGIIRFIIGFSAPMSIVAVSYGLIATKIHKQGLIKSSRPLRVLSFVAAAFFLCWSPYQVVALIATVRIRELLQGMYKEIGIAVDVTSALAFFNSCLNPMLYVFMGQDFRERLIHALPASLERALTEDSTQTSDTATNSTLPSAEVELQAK

[7] = test system: rats with CFA-induced inflammatory arthritis; parameters: method as in PMID 32388428; conditions: cited from earlier work
FPR2 [8] = target: T2, FPR2 (Homo sapiens, UniProt P25090); conditions: FPR2-transfected HL-60 cells, read-out: Ca2+ Mobilization FPR2 EC50 in HL-60 Cells, cited from earlier work
T2 construct: expressed in transfected cells; host or cells: HL-60 cells (FPR2-HL60)
T2 sequence (P25090 1-351): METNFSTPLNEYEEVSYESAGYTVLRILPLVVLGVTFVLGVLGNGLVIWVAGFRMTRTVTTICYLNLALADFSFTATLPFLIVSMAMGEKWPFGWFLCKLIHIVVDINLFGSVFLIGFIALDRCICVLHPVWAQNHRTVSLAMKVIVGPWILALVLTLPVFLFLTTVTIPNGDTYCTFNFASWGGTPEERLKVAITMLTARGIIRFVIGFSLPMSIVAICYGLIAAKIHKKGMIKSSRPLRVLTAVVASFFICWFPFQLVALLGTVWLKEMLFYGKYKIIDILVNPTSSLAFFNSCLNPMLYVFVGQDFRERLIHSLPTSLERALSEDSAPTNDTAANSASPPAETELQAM

FPR2 [9] = target: T2, FPR2; assay: Ca2+ mobilization in FPR2-transfected HL-60 cells (agonist activity); assay type: cell-based; conditions: reported here for the first time (Suppl.)
Experimental: (§3) Changes in the intracellular Ca^2+ [Ca^2+]i were measured with a FlexStation II scanning fluorometer (Molecular Devices). The cells, which were suspended in Hank’s balanced salt solution without Ca^2+ and Mg^2+ but with 10 mM HEPES (HBSS^−), were loaded with 1.25 μg/mL Fluo-4 AM dye and incubated for 30 min in the dark at 37 °C. After the dye loading, the cells were washed with HBSS^− containing 10 mM HEPES, resuspended in HBSS^+ containing Ca^2+, Mg^2+, and 10 mM HEPES (HBSS^+), and aliquoted into the wells of black microtiter plates (2 × 10^5 cells/well). […] The maximum change in the fluorescence during the first 3 min, expressed in arbitrary units over the baseline, was used to determine a response. […] A curve fitting (5–6 points) and a calculation of median effective inhibitory concentrations (IC50) were performed by nonlinear regression analysis of the dose–response curves generated using Prism 8 (GraphPad Software, Inc., San Diego, CA, USA).

FPR1 [10] = target: T1, FPR1; assay: Ca2+ mobilization in FPR1-transfected HL-60 cells (agonist activity); assay type: cell-based; conditions: reported here for the first time (Suppl.)
Experimental: as §3

MonoMac-6 cells = assay: Cytotoxicity, CellTiter-Glo, MonoMac-6 cells; assay type: cell-based, human; conditions: 24 h
Experimental: as §1, §2

[11] = N.T. = no cytotoxicity at 50 µM, read-out: Cytotoxicity IC50 in THP1-Blue Cells
[12] = Table 3, as reported previously (see Table 1)

Structure (SMILES): CSCC[C@H](NC=O)C(=O)N[C@@H](CC(C)C)C(=O)N[C@@H](Cc1ccccc1)C(=O)O [f MLF]
- Cytotoxicity in THP1-Blue Cells (FPR peptide agonists) (THP1-Blue cells; THP1-Blue cells): N.T. (No cytotoxicity was observed at the highest concentration tested (50 µM))

Structure (SMILES): COc1cccc(Nc2c(C(C)=O)c(C)nn(CC(=O)Nc3ccc(Br)cc3)c2=O)c1 [Compound 73]
- Pain hypersensitivity [7]: reduce pain hypersensitivity
- Inhibition of LPS-induced NF-κB activity (in words) [5]: inactive

Structure (SMILES): CC1CC(c2ccccc2)=NN(CC(=O)Nc2ccc(Br)cc2)C1=O (centres unmarked) [Compound 125]
- EC50 (FPR1 [6]; agonist activity from Table 1): 24.4 µM
- EC50 (FPR1 [6]; [12]): 24.4 µM
- IC50 (THP1-Blue cells; THP1-Blue cells, N.T. = no cytotoxicity at 50 µM): > 50 µM
- IC50 at 24 h [3]: > 50 µM
- IC50 [4]: 7.2 ± 0.03 µM
- IC50 [5]: 22.4 ± 0.7 µM
- EC50 (FPR2 [8]; agonist activity from Table 1): 10 µM
- EC50 (FPR2 [8]; [12]): 10 µM

Structure (SMILES): COc1cccc(Nc2c(C)c(-c3ccccc3)nn2CC(=O)Nc2ccc(Br)cc2)c1 [Compound 158]
- EC50 (FPR1 [6]; agonist activity from Table 1): > 50 µM
- IC50 at 24 h ([2]; 24 h, read-out: Cytotoxicity IC50): 22 to 26 µM
- IC50 at 24 h [2, 11]: 22.4 ± 5.2 µM
- Cytotoxicity in THP1-Blue cells (in words) (THP1-Blue cells; 24 h): cytotoxic
- IC50 ([5]; Homo sapiens): 8.8 ± 1.1 µM
- Observed class for inhibition of NF-κB activity [5]: Active
- EC50 (FPR2 [8]; agonist activity from Table 1): > 50 µM

Structure (SMILES): CSCC[C@H](NC(=O)[C@@H](NC(=O)[C@H](CCSC)NC(=O)[C@H](Cc1ccc(O)cc1)NC(=O)[C@H](CCCCN)NC(=O)[C@@H](N)Cc1c[nH]c2ccccc12)C(C)C)C(=O)O [WKYMVM, Trp-Lys-Tyr-Met-Val-Met, reference compound]
- Cytotoxicity in THP1-Blue Cells (FPR peptide agonists) (THP1-Blue cells; THP1-Blue cells): N.T. (No cytotoxicity was observed at the highest concentration tested (50 µM))

Structure (SMILES): COc1cccc(Cc2c(C)c(C)nn(CC(=O)Nc3ccc(Br)cc3)c2=O)c1 [Compound 69]
- IC50 at 24 h [2, 11]: > 50 µM
- Pain hypersensitivity [7]: reduce pain hypersensitivity
- IC50 ([5]; Homo sapiens): 34.5 ± 2.6 µM
- Inhibition of LPS-induced NF-κB activity (in words) [5]: inhibited
- Observed class for inhibition of NF-κB activity [5]: Active

The next lines start with results.

- IC50 [4]: 30.7 ± 1.8 µM
- IC50 ([5]; Homo sapiens): 0.6 ± 0.1 µM
Structure (SMILES): COc1cccc(Cc2cc(C)nn(C(C)C(=O)Nc3ccc(Br)cc3)c2=O)c1 (centres unmarked) [Compound 84, N-(4-bromophenyl)-2-[5-(3-methoxybenzyl)-3-methyl-6-oxopyridazin-1(6H)-yl]-propanamide]
- Cardioprotection in myocardial infarction injury [1]: cardioprotection effect
- Endothelium-independent relaxation (mouse aortas): induce endothelium-independent relaxation
- IC50 at 24 h [2, 11]: > 50 µM
- IC50 at 24 h [3]: > 50 µM
- Effect of blocking FPR1 (Boc-MLF) on inhibitor activity on LPS-induced NF-κB activation [5]: no effect

- IC50 [4]: 2 ± 0.3 µM
- IC50 ([5]; Homo sapiens): 0.5 ± 0.1 µM
Structure (SMILES): COc1cccc(Cc2c(-c3ccccc3)c(C)nn(CC(=O)Nc3ccc(Br)cc3)c2=O)c1 [Compound 71, N-(4-bromophenyl)-2-[5-(3-methoxybenzyl)-3-methyl-6-oxo-4-phenylpyridazin-1(6H)-yl]-acetamide]
- EC50 (FPR1 [6]; [12]): 2.2 µM
- IC50 at 24 h [2, 11]: > 50 µM
- Pain hypersensitivity [7]: reduce pain hypersensitivity
- IC50 at 24 h [3]: > 50 µM
- Inhibition of LPS-induced IL-6 production (in words) ([4]; MonoMac-6 cells, 250 ng/mL LPS, 24 h): inhibited
- Effect of blocking FPR1 (Boc-MLF) on inhibitor activity on LPS-induced NF-κB activation [5]: no effect
- Inhibition of LPS-induced NF-κB activity (in words) [5]: inhibited
- Observed class for inhibition of NF-κB activity [5]: Active
- EC50 (FPR2 [8]; agonist activity from Table 1): > 50 µM
- EC50 (FPR2 [8]; [12]): > 50 µM

- EC50 (FPR2 [9]): > 50 µM
- EC50 (FPR1 [10]): > 50 µM
Structure (SMILES): Nc1cc(-c2ccncc2)cn(CC(=O)Nc2ccc(Br)cc2)c1=O [Compound 139]

- EC50 (FPR2 [9]): > 50 µM
- EC50 (FPR1 [10]): > 50 µM
Structure (SMILES): Cc1cc(Cc2ccc(C(=O)Nc3ccc(Br)cc3)cc2)c(=O)n(CC(=O)Nc2ccc(Br)cc2)n1 [Compound 61]

- IC50 [4]: 27.5 ± 1.6 µM
- IC50 ([5]; Homo sapiens): 18 ± 0.7 µM
Structure (SMILES): Cc1cc(Cc2ccsc2)c(=O)n(CC(=O)Nc2ccc(Br)cc2)n1 [Compound 9]
- IC50 at 24 h [2, 11]: > 50 µM
- Cytotoxicity in MonoMac-6 cells (in words) (MonoMac-6 cells): exhibiting cytotoxicity
- IC50 at 24 h [3]: 19 ± 3.6 µM
- Observed class for inhibition of NF-κB activity [5]: Active
